This passage reports IC50 results from patent US20260308185A1, “STAT DEGRADERS AND USES THEREOF” (Recludix Pharma, Inc., priority 2023, published 2026).

Where only a bound is given, the exact number is not on record here.

Test [1] deals with T1, Recombinant STAT3 protein (STAT3(G127-I722)) (Homo sapiens, UniProt P40763).
T1 construct: Recombinant STAT3 protein (STAT3(G127-I722))
As to the kind of experiment: STAT3 Fluorescence Polarization (FP) Assay. The test is classed as binding. The settings on record: 25 nM STAT3(G127-I722), 2 nM 5-FAM-GpYLPQTV-NH2 probe, pH 7.4, 45-minute incubation at room temperature. The procedure:
An FP assay was developed to determine IC50 values for test substances. Recombinant STAT3 protein (STAT3(G127-I722)) at 25 nM was combined with a fluorescently labeled, phosphotyrosine peptide probe (5-FAM-GpYLPQTV-NH2) at 2 nM in FP buffer (10 mM HEPES pH 7.4, 50 mM NaCl. 1 mM EDTA, 0.05% Tween 20, 2 mM DTT). 50 μL of STAT3-probe mixture was added to serial diluted compounds in black, 96-well plates (Greiner BioOne 655076) to a final concentration of 1% DMSO. Reaction components were mixed, and FP was measured after 45-minute incubation at room temperature using a Tecan Spark multimode plate reader. FP signal (mP) was plotted against the log concentration of the test substances and IC50 values were calculated by nonlinear regression analysis using GraphPad Prism software. For STAT3 FP assay, A=≤100 nM; B=>100-1000 nM; C=>1-10 μM; and D=>10 μM.

Test [2] addresses T2, Recombinant STAT6 protein (STAT6(W123-T658)) (Homo sapiens, UniProt P42226).
T2 construct: Recombinant STAT6 protein (STAT6(W123-T658))
T2 sequence (P42226 123-658): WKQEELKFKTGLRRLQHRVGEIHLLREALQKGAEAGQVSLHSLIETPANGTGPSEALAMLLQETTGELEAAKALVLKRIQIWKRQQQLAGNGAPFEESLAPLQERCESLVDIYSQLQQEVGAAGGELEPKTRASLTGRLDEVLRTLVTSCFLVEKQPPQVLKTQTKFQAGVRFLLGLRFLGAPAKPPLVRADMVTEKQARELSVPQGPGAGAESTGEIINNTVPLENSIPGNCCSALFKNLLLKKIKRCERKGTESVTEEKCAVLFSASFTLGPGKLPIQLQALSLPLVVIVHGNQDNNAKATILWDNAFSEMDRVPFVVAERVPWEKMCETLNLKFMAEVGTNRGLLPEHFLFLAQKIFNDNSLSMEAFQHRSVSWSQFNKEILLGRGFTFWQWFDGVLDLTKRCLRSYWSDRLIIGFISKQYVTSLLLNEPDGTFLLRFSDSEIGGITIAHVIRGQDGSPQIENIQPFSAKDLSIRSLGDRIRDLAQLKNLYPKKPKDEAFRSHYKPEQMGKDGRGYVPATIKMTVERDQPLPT
As to the kind of experiment: STAT6 Fluorescence Polarization (FP) Assay. The settings on record: 250 nM STAT6(W123-T658), 2 nM 5-FAM-Ap[…]-NH2 probe, pH 7.4, 45-minute incubation at room temperature. The format is binding. Here is the method: An FP assay was developed to determine IC50 values for test substances. Recombinant STAT6 protein (STAT6(W123-T658)) at 250 nM was combined with a fluorescently labeled, phosphotyrosine peptide probe (5-FAM-Ap[…]-NH2) at 2 nM in FP buffer (10 mM HEPES pH 7.4, 50 mM NaCl, 1 mM EDTA, 0.05% Tween 20, 2 mM DTT). 50 μL of STAT6-probe mixture was added to serial diluted compounds in black, 96-well plates (Greiner BioOne 655076) to a final concentration of 1% DMSO. Reaction components were mixed, and FP w as measured after 45-minute incubation at room temperature using a Tecan Spark multimode plate reader. FP signal (mP) was plotted against the log concentration of the test substances and IC50 values were calculated by nonlinear regression analysis using GraphPad Prism software. For STAT6 FP assay. A=≤300 nM; B=>300-3000 nM; C=>3-30 μM; and D=>30 μM.

In test [3] the test system is pSTAT3 (pY705-STAT3) in PBMC. Put plainly: MSD-pSTAT-PBMC Assay (pSTAT3). The settings on record: compound 3 hrs, then 10 ng/mL IL-6 for 10 min. The test is classed as cell-based. The text has this: (§1) Cryopreserved Peripheral Blood Mononuclear Cells (PBMC) are from AllCells. Recombinant Human […] and IL-6 are from Peprotech. Mouse monoclonal anti-STAT3 antibody, rabbit monoclonal anti-pY705-STAT3 antibody, rabbit monoclonal Anti-pY641-STAT6 antibody, and lysis buffer are from Cell Signaling Technology (CST). Mouse monoclonal anti-STAT6 antibody is from BioLegend. Assay plates, blocker, and anti-rabbit secondary antibody are from Meso Scale Discovery (MSD).
(§2) Cryopreserved PBMCs were thawed out and allowed to recover overnight in IMDM+10% heat-inactivated FBS prior to plating 50,000 (STAT3) or 25,000 (STAT6) cells per well in 96-well U-bottom tissue culture plates. Cells were treated with compound for 3 hrs, then stimulated with 10 ng/mL IL-6 (STAT3) or 1 ng/mL IL-4 (STAT6) for 10 min. Cells were then spun down and washed with ice-cold PBS prior to lysing the cell pellet with 1× lysis buffer (CST) with 1× HALT protease and phosphatase inhibitor cocktail (Thermo). Lysates were transferred to and incubated overnight at 4° C. with shaking in QuickPlex 96-well high bind assay plates (MSD) pre-coated overnight with 30 μL per well of 0.6 μg/mL mouse monoclonal anti-STAT3 antibody (STAT3) or 2 μg/mL mouse monoclonal anti-STAT6 antibody (STAT6) in 1×PBS, and pre-blocked for 1 hour with 3% Blocker-A (MSD). Captured protein in the assay plates were then washed and probed with 25 μL per well of 0.25 μg/ml rabbit monoclonal anti-pY705-STAT3 antibody (STAT3) or 0.18 μg/ml rabbit monoclonal Anti-pY641-STAT6 antibody (STAT6) in 1% Blocker-A for 1 hour at room temperature with shaking, then washed and probed with 25 ul per well of 1 ug/ml Sulfo-TAG Labeled Goat Anti-Rabbit Antibody (MSD) in 1% Blocker-A for 1 hour at room temperature with shaking. Assay plates were then washed and 150 μL of 1× Read Buffer-T (MSD) was added to each well prior to reading on an SQ120 MSD Plate Reader. Assay signal from each sample was subtracted by the signal from unstimulated control wells and normalized to DMSO control wells, IC50 values were calculated using Graph Pad Prism Dose-Response Nonlinear Regression with variable slope. For both pSTAT3 and pSTAT6 A=≤100 nM; B=>100-1000 nM; C=>1000-3000 nM; and D=>3 μM.

Test [4] deals with pSTAT6 (pY641-STAT6) in PBMC. As to the kind of experiment: MSD-pSTAT-PBMC Assay (pSTAT6). The format is cell-based. The settings on record: compound 3 hrs, then 1 ng/mL IL-4 for 10 min.
Description: as §1, §2

T1 sequence (P40763 127-722): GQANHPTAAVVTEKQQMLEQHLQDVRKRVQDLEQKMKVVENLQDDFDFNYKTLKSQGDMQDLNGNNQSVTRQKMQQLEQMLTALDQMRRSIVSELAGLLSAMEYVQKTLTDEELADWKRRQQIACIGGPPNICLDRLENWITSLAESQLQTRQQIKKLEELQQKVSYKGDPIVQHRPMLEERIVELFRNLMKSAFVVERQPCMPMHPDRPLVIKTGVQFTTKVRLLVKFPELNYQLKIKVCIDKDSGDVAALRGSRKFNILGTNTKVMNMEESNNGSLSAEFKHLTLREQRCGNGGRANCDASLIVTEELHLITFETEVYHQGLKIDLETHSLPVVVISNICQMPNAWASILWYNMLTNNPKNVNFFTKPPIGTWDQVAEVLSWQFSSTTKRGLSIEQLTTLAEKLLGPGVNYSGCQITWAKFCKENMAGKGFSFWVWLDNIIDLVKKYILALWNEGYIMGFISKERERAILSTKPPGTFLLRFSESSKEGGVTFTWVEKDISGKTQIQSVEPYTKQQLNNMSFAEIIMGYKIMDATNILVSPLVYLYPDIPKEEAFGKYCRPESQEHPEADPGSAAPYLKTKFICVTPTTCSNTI

On to `O=C1CCC(N2Cc3c(C#CCCCCCC(=O)NC4(c5ccccn5)CN(C(=O)[C@@H]5CC[C@@H]6C[C@H]7C[C@H]7C[C@H](NC(=O)c7cc8cc(C(F)(F)P(=O)(O)O)ccc8s7)C(=O)N65)C4)cccc3C2=O)C(=O)N1` (stereo partly drawn) [Compound 1, ((2-(((3S,6S,7aS,8aR,9aR)-3-(3-(8-(2-(2,6-dioxopiperidin-3-yl)-1-oxoisoindolin-4-yl)oct-7-ynamido)-3-(pyridin-2-yl)azetidine-1-carbonyl)-5-oxodecahydro-1H-cyclopropa[d]pyrrolo[1,2-a]azocin-6-yl)carbamoyl)benzo[b]thiophen-5-yl)difluoromethyl)phosphonic acid], for which the IC50 in test [1] was < 100 nM; in test [2], 3000 to 30000 nM; in test [3], > 3000 nM.

Consider `CCCC(=O)SCCOP(=O)(OCCSC(=O)CCC)C(F)(F)c1ccc2sc(C(=O)NC3CC4CC4CC4CCC(C(=O)N5CC(NC(=O)CCCCCC#Cc6cccc7c6CN(C6CCC(=O)NC6=O)C7=O)(c6ccccn6)C5)N4C3=O)cc2c1` [Compound 2, S,S′-(((((2-(((3S,6S,7aS,8aR,9aR)-3-(3-(8-(2-(2,6-dioxopiperidin-3-yl)-1-oxoisoindolin-4-yl)oct-7-ynamido)-3-(pyridin-2-yl)azetidine-1-carbonyl)-5-oxodecahydro-1H-cyclopropa[d]pyrrolo[1,2-a]azocin-6-yl)carbamoyl)benzo[b]thiophen-5-yl)difluoromethyl)phosphoryl)bis(oxy))bis(ethane-2,1-diyl)) dibutanethioate], for which the values for the IC50 in test [3] and in test [4] were < 100 nM and > 3000 nM, respectively.

As to `CN(CCOc1ccc(C2CCC(=O)NC2=O)cc1)c1ccncc1C1CN(C(=O)[C@@H]2CC[C@@H]3C[C@H]4C[C@H]4C[C@H](NC(=O)c4cc5cc(C(F)(F)P(=O)(O)O)ccc5s4)C(=O)N32)C1` (stereo partly drawn) [Compound 11, ((2-(((3S,6S,7aS,8aR,9aR)-3-(3-(4-((2-(4-(2,6-dioxopiperidin-3-yl)phenoxy)ethyl)(methyl)amino)pyridin-3-yl)azetidine-1-carbonyl)-5-oxodecahydro-1H-cyclopropa[d]pyrrolo[1,2-a]azocin-6-yl)carbamoyl)benzo[b]thiophen-5-yl)difluoromethyl)phosphonic acid], the IC50 in test [1] is < 100 nM; in test [2], 3000 to 30000 nM; in test [3], > 3000 nM.

As to `CCCC(=O)SCCOP(=O)(OCCSC(=O)CCC)C(F)(F)c1ccc2sc(C(=O)NC3CC4CC4CC4CCC(C(=O)N5CC(c6cnccc6N(C)CCOc6ccc(C7CCC(=O)NC7=O)cc6)C5)N4C3=O)cc2c1` [Compound 12, S,S′-(((((2-(((3S,6S,7aS,8aR,9aR)-3-(3-(4-((2-(4-(2,6-dioxopiperidin-3-yl)phenoxy)ethyl)(methyl)amino)pyridin-3-yl)azetidine-1-carbonyl)-5-oxodecahydro-1H-cyclopropa[d]pyrrolo[1,2-a]azocin-6-yl)carbamoyl)benzo[b]thiophen-5-yl)difluoromethyl)phosphoryl)bis(oxy))bis(ethane-2,1-diyl)) dibutanethioate], the IC50 in test [3] was < 100 nM.

For the molecule `O=C1CCC(n2c(=O)[nH]c3cc(N4CCC(n5ccc([C@@H]6CN(C(=O)[C@@H]7CC[C@@H]8C[C@H]9C[C@H]9C[C@H](NC(=O)c9cc%10cc(C(F)(F)P(=O)(O)O)ccc%10s9)C(=O)N87)C7(CC7)C6)cc5=O)CC4)ccc32)C(=O)N1` (stereo partly drawn) [Compound 19, ((2-(((3S,6S,7aS,8aR,9aR)-3-((6R)-6-(1-(1-(1-(2,6-dioxopiperidin-3-yl)-2-oxo-2,3-dihydro-1H-benzo[d]imidazol-5-yl)piperidin-4-yl)-2-oxo-1,2-dihydropyridin-4-yl)-4-azaspiro[2.4]heptane-4-carbonyl)-5-oxodecahydro-1H-cyclopropa[d]pyrrolo[1,2-a]azocin-6-yl)carbamoyl)benzo[b]thiophen-5-yl)difluoromethyl)phosphonic acid], the values for the 50% inhibitory concentration (IC50) in test [1], in test [2] and in test [4] were 100 to 1000 nM, 300 to 3000 nM and > 3000 nM, respectively.

On to `O=C1CCC(c2ccc(OCC(=O)N3CCN(c4ccncc4C4CN(C(=O)[C@@H]5CC[C@@H]6C[C@H]7C[C@H]7C[C@H](NC(=O)c7cc8cc(C(F)(F)P(=O)(O)O)ccc8s7)C(=O)N65)C4)CC3)cc2)C(=O)N1` (stereo partly drawn) [Compound 21, ((2-(((3S,6S,7aS,8aR,9aR)-3-(3-(4-(4-(2-(4-(2,6-dioxopiperidin-3-yl)phenoxy)acetyl)piperazin-1-yl)pyridin-3-yl)azetidine-1-carbonyl)-5-oxodecahydro-1H-cyclopropa[d]pyrrolo[1,2-a]azocin-6-yl)carbamoyl)benzo[b]thiophen-5-yl)difluoromethyl)phosphonic acid], for which the figures for the IC50 in test [1], in test [2] and in test [3] were < 100 nM, 3000 to 30000 nM and > 3000 nM, respectively.

On to `CCCC(=O)SCCOP(=O)(OCCSC(=O)CCC)C(F)(F)c1ccc2sc(C(=O)N[C@H]3C[C@@H]4C[C@@H]4C[C@H]4CCC(C(=O)N5CC(c6cnccc6N6CCN(C(=O)COc7ccc(C8CCC(=O)NC8=O)cc7)CC6)C5)N4C3=O)cc2c1` (stereo partly drawn) [Compound 22, S,S′-(((((2-(((3S,6S,7aS,8aR,9aR)-3-(3-(4-(4-(2-(4-(2,6-dioxopiperidin-3-yl)phenoxy)acetyl)piperazin-1-yl)pyridin-3-yl)azetidine-1-carbonyl)-5-oxodecahydro-1H-cyclopropa[d]pyrrolo[1,2-a]azocin-6-yl)carbamoyl)benzo[b]thiophen-5-yl)difluoromethyl)phosphoryl)bis(oxy))bis(ethane-2,1-diyl)) dibutanethioate], for which, in test [3], the IC50 was < 100 nM.
